Laboratory results from patent US20240270821A1, “GIP/GLP1/GCG TRI-RECEPTOR AGONISTS AND USES THEREOF” (priority 2023, published 2024).
Like-named read-outs stand apart in the source and are kept apart here. Marks after values point to notes of the source that are not given here. Starred links: 1 amine or outer side, 2 acyl side, 3 side chain; linkers in the order of their positions; H or OH if unused. Non-standard residues stand in square brackets, D forms with d. Residues, ends and D or L forms follow the SMILES beside them. Groups on a side chain read outwards from the residue. No end group written: not given here. *: point of attachment. C18 diacid = O=C(O)CCCCCCCCCCCCCCCCC(=O)*; αMePhe(2-F) = C[C@](N)(Cc1ccccc1F)C(=O)O; γGlu = O=C(O)[C@H](CCC(=O)[*:2])N[*:1]; αMeY = C[C@](N)(Cc1ccc(O)cc1)C(=O)O; 4Pal = N[C@@H](Cc1ccncc1)C(=O)O; αMeL = CC(C)C[C@](C)(N)C(=O)O; αMeS = C[C@](N)(CO)C(=O)O; Orn = NCCC[C@H](N)C(=O)O; AEEA = NCCOCCOCC(=O)O; Aib = CC(C)(N)C(=O)O

Assays:
hGIPR [1] = target: T1, hGIPR (Homo sapiens, UniProt P48546); test: Functional cAMP activity in the presence of 1% HSA; assay type: cell-based; conditions: read-out: cAMP Rel EC50, hGIPR
T1 sequence (P48546 22-466): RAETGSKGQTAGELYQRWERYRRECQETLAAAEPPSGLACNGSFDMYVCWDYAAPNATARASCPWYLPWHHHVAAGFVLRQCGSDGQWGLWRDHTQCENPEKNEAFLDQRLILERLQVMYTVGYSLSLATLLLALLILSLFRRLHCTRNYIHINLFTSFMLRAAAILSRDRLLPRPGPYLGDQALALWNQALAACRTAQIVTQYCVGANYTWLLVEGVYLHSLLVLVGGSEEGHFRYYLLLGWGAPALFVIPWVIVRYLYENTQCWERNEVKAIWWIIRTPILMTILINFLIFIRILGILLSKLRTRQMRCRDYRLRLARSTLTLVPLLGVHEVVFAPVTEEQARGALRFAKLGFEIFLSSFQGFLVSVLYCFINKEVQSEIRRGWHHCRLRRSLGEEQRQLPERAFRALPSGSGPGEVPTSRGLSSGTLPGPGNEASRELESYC

hGLP-1R [2] = target: T2, hGLP-1R (Homo sapiens, UniProt P43220); test: Functional cAMP activity in the presence of 1% HSA; assay type: cell-based; conditions: read-out: cAMP Rel EC50, hGLP-1R
T2 sequence (P43220 24-463): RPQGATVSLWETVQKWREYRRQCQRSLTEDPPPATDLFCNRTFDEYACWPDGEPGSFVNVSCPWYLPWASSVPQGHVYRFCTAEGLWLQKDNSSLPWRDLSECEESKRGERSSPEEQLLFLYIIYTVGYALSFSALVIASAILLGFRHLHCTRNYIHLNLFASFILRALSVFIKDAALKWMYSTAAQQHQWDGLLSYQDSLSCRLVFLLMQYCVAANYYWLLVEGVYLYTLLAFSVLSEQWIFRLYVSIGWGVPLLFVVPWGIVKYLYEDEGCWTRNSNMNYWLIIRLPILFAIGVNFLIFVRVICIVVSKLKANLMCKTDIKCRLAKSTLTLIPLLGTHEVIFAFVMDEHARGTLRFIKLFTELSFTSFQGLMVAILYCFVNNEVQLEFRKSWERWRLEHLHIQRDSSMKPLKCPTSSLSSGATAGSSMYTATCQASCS

human GcgR = human GcgR (Homo sapiens, UniProt P47871); test: Functional cAMP activity in the presence of 1% HSA; assay type: cell-based; conditions: read-out: cAMP Rel EC50, hGcgR
Chain of human GcgR (P47871 26-477): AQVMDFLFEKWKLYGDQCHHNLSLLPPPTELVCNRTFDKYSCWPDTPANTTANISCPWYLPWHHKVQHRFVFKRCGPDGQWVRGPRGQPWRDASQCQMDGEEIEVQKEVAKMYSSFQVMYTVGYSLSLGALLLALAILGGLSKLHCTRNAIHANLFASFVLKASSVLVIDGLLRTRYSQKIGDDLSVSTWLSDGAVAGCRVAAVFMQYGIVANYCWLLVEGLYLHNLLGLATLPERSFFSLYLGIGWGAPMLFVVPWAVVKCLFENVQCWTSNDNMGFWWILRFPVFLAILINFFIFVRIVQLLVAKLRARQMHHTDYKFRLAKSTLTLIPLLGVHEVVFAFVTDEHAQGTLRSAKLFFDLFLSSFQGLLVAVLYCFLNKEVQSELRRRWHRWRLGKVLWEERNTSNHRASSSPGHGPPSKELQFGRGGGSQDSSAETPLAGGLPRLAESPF

hGIPR [3] = target: T1, hGIPR; test: Functional cAMP activation in the presence of 0.1% casein (no HSA); assay type: cell-based; conditions: read-out: Relative cAMP EC50, hGIPR;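 for Relative cAMP EC50, hGIPR: intracellular cAMP rise after 30 min at 37 °C read by HTRF against a standard curve, scaled between buffer alone (0%) and top control ligand concentration (100%), four-parameter fit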;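 for Relative cAMP EC50, hGLP-1R: intracellular cAMP rise after 30 min at 37 °C read by HTRF, normalized between buffer only (0%) and maximal control ligand (100%), four-parameter variable-slope fit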;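 for Relative cAMP EC50, hGcgR: intracellular cAMP rise after 30 min at 37 °C, read by HTRF against a cAMP standard curve, scaled from buffer only (0%) to maximal control ligand response (100%)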
hGLP-1R [4] = target: T2, hGLP-1R; test: as above; assay type: cell-based; conditions: read-out: Relative cAMP EC50, hGLP-1R
hGcgR = hGcgR (Homo sapiens, UniProt P47871); test: as above; assay type: cell-based; conditions: read-out: Relative cAMP EC50, hGcgR;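 note: intracellular cAMP rise after 30 min at 37 °C, read by HTRF against a cAMP standard curve, scaled from buffer only (0%) to maximal control ligand response (100%)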
Chain of hGcgR (P47871 26-477): as above

in vivo = test: in vivo; set-up: species or system Sprague Dawley rats; conditions: male, Sprague Dawley, rat, 4 mg/kg
[5] = Body weight in diet-induced obese C57BL/6 mice; assay type: in vivo; conditions: 10 nmol/kg SC QD, percent of starting weight, DIO mice, mean ± SEM n=5
In short: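 Male C57BL/6 DIO mice (41-50 g, 5 per group, randomized by weight) on calorie-rich diet received subcutaneous doses 30-90 min before dark onset, QD or Q3D for 9-16 days. Body weight measured daily, expressed as percent of starting weight, mean±SEM.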

[6] = in the presence of 0.1% casein (no HSA), geometric mean

| EC50 (hGIPR [1]) | EC50 (hGLP-1R [2]) | EC50 (human GcgR) | CL/F (in vivo) | half-life (in vivo) | EC50 (hGIPR [3]) | EC50 (hGLP-1R [4]) | EC50 (hGcgR) | Compound | EC50 (hGIPR [3]; [6]) | EC50 (hGLP-1R [4]; [6]) | EC50 (hGcgR; [6]) | Body weight (%) ([5]; 14 days) | Body weight (%) ([5]; 9 days) | Body weight (%) ([5]; 15 days) |
| --- | --- | --- | --- | --- | --- | --- | --- | --- | --- | --- | --- | --- | --- | --- |
| 6.36 nM | 24.7 nM | 496 nM | 16.2 mL/min/kg | 8.3 h | 0.0558 nM | 0.362 nM | 4.27 nM | Y[Aib]QGT[αMePhe(2-F)]TSD[4Pal][αMeS]I[αMeL]LD[Orn]K([AEEA-γGlu-C18 diacid])AQ[Aib][Orn]FI[dE]YLIEGGPSSGEPPPSEG-NH2 [Example 463] | – | – | – | – | 83.31 ± 2.10 % | – |
| 2.15 nM | 18.8 nM | 176 nM | 3.83 mL/min/kg | 8.2 h | – | – | – | CC[C@H](C)[C@H](NC(=O)[C@H](CC(C)C)NC(=O)[C@](C)(Cc1ccc(O)cc1)NC(=O)[C@@H](CCC(=O)O)NC(=O)[C@@H](NC(=O)[C@H](Cc1ccccc1)NC(=O)[C@H](CCCN)NC(=O)C(C)(C)NC(=O)[C@H](CCC(N)=O)NC(=O)[C@H](C)NC(=O)[C@H](CCCCNC(=O)COCCOCCNC(=O)CC[C@H](NC(=O)CCCCCCCCCCCCCCCCC(=O)O)C(=O)O)NC(=O)[C@H](CCCN)NC(=O)[C@H](CC(=O)O)NC(=O)[C@H](CC(C)C)NC(=O)[C@](C)(CC(C)C)NC(=O)[C@@H](NC(=O)[C@](C)(CO)NC(=O)[C@H](Cc1ccncc1)NC(=O)[C@H](CC(=O)O)NC(=O)[C@H](CO)NC(=O)[C@@H](NC(=O)[C@](C)(Cc1ccccc1F)NC(=O)[C@@H](NC(=O)CNC(=O)[C@H](CCC(N)=O)NC(=O)C(C)(C)NC(=O)[C@@H](N)Cc1ccc(O)cc1)[C@@H](C)O)[C@@H](C)O)[C@@H](C)CC)[C@@H](C)CC)C(=O)N[C@@H](CCC(=O)O)C(=O)NCC(=O)NCC(=O)N1CCC[C@H]1C(=O)N[C@@H](CO)C(=O)N[C@@H](CO)C(=O)NCC(=O)N[C@@H](CCC(=O)O)C(=O)N1CCC[C@H]1C(=O)N1CCC[C@H]1C(=O)N1CCC[C@H]1C(=O)N[C@@H](CCC(=O)O)C(N)=O [Example 378] (H-Y[Aib]QGT[αMePhe(2-F)]TSD[4Pal][αMeS]I[αMeL]LD[Orn]K([AEEA-γGlu-C18 diacid])AQ[Aib][Orn]FI[dE][αMeY]LIEGGPSSGEPPPE-NH2) | 0.0213 nM | 0.251 nM | 1.45 nM | – | – | 68.84 +/− 1.37**** % |

| Compound | EC50 (hGIPR [1]) | EC50 (hGLP-1R [2]) | EC50 (human GcgR) | CL/F (in vivo) | half-life (in vivo) | EC50 (hGIPR [3]) | EC50 (hGLP-1R [4]) | EC50 (hGcgR) | EC50 (hGIPR [3]; [6]) | EC50 (hGLP-1R [4]; [6]) | EC50 (hGcgR; [6]) | Body weight (%) ([5]; 14 days) | Body weight (%) ([5]; 9 days) | Body weight (%) ([5]; 15 days) |
| --- | --- | --- | --- | --- | --- | --- | --- | --- | --- | --- | --- | --- | --- | --- |
| CC[C@H](C)[C@H](NC(=O)[C@H](Cc1ccccc1)NC(=O)[C@H](CCCN)NC(=O)C(C)(C)NC(=O)[C@H](CCC(N)=O)NC(=O)[C@H](C)NC(=O)[C@H](CCCCNC(=O)COCCOCCNC(=O)CC[C@H](NC(=O)CCCCCCCCCCCCCCCCC(=O)O)C(=O)O)NC(=O)[C@H](CCCN)NC(=O)[C@H](CC(=O)O)NC(=O)[C@H](CC(C)C)NC(=O)[C@](C)(CC(C)C)NC(=O)[C@@H](NC(=O)[C@](C)(CO)NC(=O)[C@H](Cc1ccncc1)NC(=O)[C@H](CC(=O)O)NC(=O)[C@H](CO)NC(=O)[C@@H](NC(=O)[C@](C)(Cc1ccccc1F)NC(=O)[C@@H](NC(=O)CNC(=O)[C@H](CCC(N)=O)NC(=O)C(C)(C)NC(=O)[C@@H](N)Cc1ccc(O)cc1)[C@@H](C)O)[C@@H](C)O)[C@@H](C)CC)C(=O)N[C@H](CCC(=O)O)C(=O)N[C@@](C)(Cc1ccc(O)cc1)C(=O)N[C@@H](CC(C)C)C(=O)N[C@@H](CC(C)C)C(=O)N[C@@H](CCC(=O)O)C(=O)NCC(=O)NCC(=O)N1CCC[C@H]1C(=O)N[C@@H](CO)C(=O)N[C@@H](CO)C(=O)NCC(=O)N[C@@H](CCC(=O)O)C(=O)N1CCC[C@H]1C(=O)N1CCC[C@H]1C(=O)N1CCC[C@H]1C(=O)N[C@@H](CO)C(N)=O [Example 369] (H-Y[Aib]QGT[αMePhe(2-F)]TSD[4Pal][αMeS]I[αMeL]LD[Orn]K([AEEA-γGlu-C18 diacid])AQ[Aib][Orn]FI[dE][αMeY]LLEGGPSSGEPPPS-NH2) | 4.58 nM | 26.8 nM | 111 nM | 11.3 mL/min/kg | 8.2 h | – | – | – | 0.0263 nM | 0.301 nM | 0.873 nM | 52.91 +/− 2.17**** % | – | – |
